Measured values as given in patent publication US20230159583A1, “COMPOUND FOR TREATING GOUT, PREPARATION METHOD THEREFOR, AND USE THEREOF” (Huazhong Pharmaceutical Co., Ltd., priority 2020, published 2023).
Where two headings read alike, the source gives them in different places.

Experiments:
Type in all cases: in vivo
[1] = tested on: rat paw swelling induced by monosodium urate (MSU); assay: rat paw swelling model induced by monosodium urate (MSU); conditions: for inhibition in vivo at 90 mg/kg / inhibition in vivo at 0.36 mg/kg / inhibition in vivo at 1.8 mg/kg / inhibition in vivo at 9 mg/kg / change in vivo at 90 mg/kg: Rattus norvegicus, po; for inhibition in vivo at 90 mg/kg / inhibition in vivo at 0.36 mg/kg / inhibition in vivo at 1.8 mg/kg / inhibition in vivo at 9 mg/kg: 1 h, read-out: Swelling inhibition rate; for inhibition in vivo at 0.36 mg/kg: dosage 0.36 mg/kg; for inhibition in vivo at 1.8 mg/kg: dosage 1.8 mg/kg; for inhibition in vivo at 9 mg/kg: dosage 9 mg/kg; for change in vivo at 90 mg/kg: read-out: Swelling degree; for Mean volume of paw after administration: 1 h after onset of inflammation (50 μL 2% MSU)
Text: Gout is a disease unique to human, and gouty arthritis is an inflammatory reaction caused by the deposition of monosodium urate (MSU) in local joint tissues. Since purine metabolism pathways in some mammals such as mice and rabbits are different from those in humans, it is impossible to construct a gouty arthritis model by the method of interfering with purine metabolism disorders, so the most direct method for causing gouty arthritis is to directly inject MSU into the joint cavity of the model animal. The model is only used for simulating local joint inflammation of gout, is suitable for observation of local arthritis symptoms, is a common method for screening anti-inflammatory effects of gout drugs at present, and has the advantages of stability, easy operation and the like. (Reference: Li Na, Hua Long, and Yuan Hui. Research progress of gout animal models [J]. Medical theory and practice, 2016(24).
The anti-gout effect of the compound prepared in the above Example was detected by using a rat paw swelling model induced by monosodium urate (MSU), and the control sample was methylprednisolone.
Experimental method: MSU was used as an inflammatory agent, injected subcutaneously into the hind paws of rats to cause paw swelling, and then the volume of the paws was measured, and the swelling rates and swelling inhibition rates of the treatment group and the control group were compared. On the day of the experiment, the volume of right hind paw (ml) of each rat was measured firstly, and then after the onset of inflammation, the volume of right hind paw was measured so that the difference of volume of paw before and after inflammation was swelling degree, and the swelling inhibition rate of paw (swelling inhibition rate %=(C−T)/C*100%); C=swelling rate of the control group %, and T=swelling rate of the treatment group) was calculated. This method is one of the commonly used methods for screening anti-inflammatory effects of gout drugs, and the model is stable and easy to operate.
(2) One week before the subcutaneous injection of MSU into the feet and soles of the rats, the rats were given different doses of the test drugs, and the drugs were given by gavage once a day, for seven consecutive days. The circumference of the right hind paw was marked and measured before the last administration, and the average value of the two measurements was taken as the standard. 1 h after the last administration, animals in other groups were given 50 μL of 2% MSU in addition to the blank control group, and the paw circumference was measured 1 h after the onset of inflammation. […]

[2] = tested on: carrageenan-induced mouse paw swelling; assay: carrageenan-induced mouse paw swelling model; conditions: for Circumference of the paw after administration: 180 min after onset of inflammation (0.5% carrageenan); for inhibition in vivo at 0.26 mg/kg / inhibition in vivo at 13 mg/kg / inhibition in vivo at 130 mg/kg / change in vivo at 130 mg/kg: Mus musculus, po, 3 h; for inhibition in vivo at 0.26 mg/kg: dosage 0.26 mg/kg; for inhibition in vivo at 0.26 mg/kg / inhibition in vivo at 13 mg/kg / inhibition in vivo at 130 mg/kg: read-out: Swelling inhibition rate; for inhibition in vivo at 13 mg/kg: dosage 13 mg/kg; for change in vivo at 130 mg/kg: read-out: Swelling degree
Protocol: The anti-inflammatory effects of the compounds prepared in the above Examples were detected using a carrageenan-induced mouse paw swelling model, and the control sample was methylprednisolone:
Carrageenan-induced mouse paw swelling model is a classical acute inflammation model commonly used for evaluating or screening anti-inflammatory effects of drugs. When carrageenan is injected into the paw of mice, a series of reactions similar to human acute inflammation such as local capillary dilatation, increased vascular permeability, exudation and edema can be caused, so the model can be widely used in the evaluation of new drugs.
Reference for experimental method: Yang Huan, Cheng Xiao, Wang Yuehua, Du Guanhua. Effects of esculin on the swelling of toes and inflammation induced by carrageenan in mice [J]. Chinese Journal of New Drugs, 2016(25):2322.
On the day of the experiment, the circumference of right hind paw (cm) of each mouse was measured firstly, and then, after the onset of inflammation, the circumference of right hind paw was measured so that the difference of the circumferences of the paws before and after inflammation was swelling degree, and the swelling inhibition rate of paw (swelling inhibition rate %=(C−T)/C*100%); C=swelling rate of the control group %, and T=swelling rate of the treatment group) was calculated.
(2) Gavage administration was performed once a day for seven consecutive days. The circumference of the right hind paw was marked and measured before the last administration, and the average value of the two measurements was taken as the standard. 30 min after the last administration, 20 μL/mice of 0.5% carrageenan was injected into the right hind ankle of the mice to induce inflammation, and the circumference of paw was measured 180 min after the onset of inflammation. […]

[3] = tested on: ICR mice; conditions: p.o.
Protocol: The experiment was designed according to the “Technical Guideline for Acute Toxicity Test of Chemical Drugs” issued by the State Food and Drug Administration in March 2005. The doses administered were 4 g/kg, 4.91 g/kg, 6.14 g/kg, 7.68 g/kg, 9.6 g/kg, 12 g/kg, and 15 g/kg (the dose could be adjusted according to the actual test results), 12 ICR mice per dose group. If the administration volume is greater than 0.5 ml, it is better to perform the drug administration in two or more times (Note: according to the national standard GB 15193.3-2014, if multiple drug administrations are required, the time interval should be 4 h to 6 h each time, and the patient should be fasted on the day before drug administration).

[4] = SD rats, 90 mg/kg by gavage once a day for seven days, 1 h after onset of inflammation
[5] = rat, MSU-induced paw swelling, dosage 90 mg/kg
[6] = SD rats, 90 mg/kg by gavage once a day for seven days
[7] = ICR mice, 130 mg/kg by gavage once a day for seven days, 180 min after onset of inflammation
[8] = ICR mice, 130 mg/kg by gavage once a day for seven days
[9] = mouse, carrageenan-induced paw swelling
[10] = mouse, carrageenan-induced paw swelling, dosage 130 mg/kg

Row | SMILES | inhibition in vivo at 90 mg/kg [1, 4] | inhibition in vivo at 0.36 mg/kg ([1]; rat, MSU-induced paw swelling) | inhibition in vivo at 1.8 mg/kg ([1]; rat, MSU-induced paw swelling) | inhibition in vivo at 9 mg/kg ([1]; rat, MSU-induced paw swelling) | inhibition in vivo at 90 mg/kg [1, 5] | change in vivo at 90 mg/kg [1, 4] | Swelling value [1, 4] | Mean volume of paw after administration [1, 6] | Swelling value [2, 7] | Circumference of the paw after administration [2, 8] | inhibition in vivo at 0.26 mg/kg [2, 9] | inhibition in vivo at 13 mg/kg [2, 9] | inhibition in vivo at 130 mg/kg [2, 10] | change in vivo at 130 mg/kg [2, 7] | inhibition in vivo at 130 mg/kg [2, 7] | Mortality ([3]; 4 g/kg) | Mortality ([3]; 4.91 g/kg) | Mortality ([3]; 6.14 g/kg) | Mortality ([3]; 7.68 g/kg) | Mortality ([3]; 9.6 g/kg) | other results
1 | C[C@]12C=CC(=NO)C=C1CC[C@@H]1[C@@H]2[C@@H](O)C[C@@]2(C)[C@H]1CC[C@]2(O)/C(CO)=N/O [Example 3, (8S,9S,10R,11S,13S,14S,17R)-11,17-dihydroxy-17-((E)-2-hydroxy (hydroxyimino)ethyl)-10,13-dimethyl-6,7,8,9,10,11,12,13,14,15,16,17-dodecahydro-3H-cyclopentane[α]phenanthrene-3-one oxime] | 80.5% | 10.2% | 25.2% | 32.1% | 82.1% | 64.2% | 0.77 mL | 1.97 mL | 0.05 cm | 1.53 cm | 9.12% | 42.3% | 78.2% | 3.38% | 82.5% | 0/12 | 0/12 | 0/12 | 0/12 | 0/12 | Mortality ([3]; 12 g/kg): 0/12; Mortality ([3]; 15 g/kg): 1/12
2 | CC(=O)OC/C(=N\O)[C@@]1(O)CC[C@H]2[C@@H]3C[C@H](C)C4=CC(=NO)C=C[C@]4(C)[C@H]3[C@@H](O)C[C@@]21C [Example 2, (2E)-2-((6S,8S,9S,10R,11S,13S,14S,17R)-11,17-dihydroxy-3-(hydroxyimino)-6,10,13-trimethyl-6,7,8,9,10,11,12,13,14,15,16,17-dodecahydro-3H-cyclopentane[α]phenanthrene-17-yl)-2-(hydroxyimino)ethyl acetate] | 99% | 15.1% | 32.1% | 52.1% | 98.2% | 3.23% | 0.04 mL | 1.28 mL | 0.01 cm | 1.43 cm | 15.1% | 63.1% | 96.2% | 0.7% | 96.4% | 0/12 | 0/12 | 0/12 | 0/12 | 1/12 | Mortality ([3]; 12 g/kg): 4/12; Mortality ([3]; 15 g/kg): 6/12
3 | C[C@H]1C[C@@H]2[C@H]([C@@H](O)C[C@@]3(C)[C@H]2CC[C@]3(O)/C(CO)=N/O)[C@@]2(C)C=CC(=NO)C=C12 [Example 1, (6S,8S, 9S, 10R, 11S, 13S, 14S, 17R)-11,17-dihydroxy-17-((E)-2-hydroxy-1-(hydroxyimino)ethyl)-6,10,13-trimethyl-6,7,8,9,10,11,12,13,14,15,16,17-dodecahydro-3H-cyclopentane[α]phenanthrene-3-one oxime] | 99.7% | 12.1% | 45.2% | 68.2% | 97.4% | 0.85% | 0.01 mL | 1.19 mL | 0.01 cm | 1.46 cm | 10.3% | 58.1% | 97.4% | 0.69% | 96.4% | 0/12 | 0/12 | 0/12 | 0/12 | 0/12 | Mortality ([3]; 12 g/kg): 0/12; Mortality ([3]; 15 g/kg): 0/12
